US20260217735A1, “HETEROCYCLES AND USES THEREOF” (Kumquat Biosciences Inc., priority 2023, published 2026)

Key:
KRAS G12S = biological target: T1, KRAS G12S (Homo sapiens, UniProt P01116, G12S); test: HTRF assay, KRAS G12S interaction with SOS1; assay type: biochemical; details: bins <500 nM / 500 nM to 1000 nM, read-out: Inhibition of KRAS G12S (IC50)
T1 construct: made in house; host or cells: E. coli, e.g. BL21 (DE3)

KRAS G12V = biological target: T2, KRAS G12V (Homo sapiens, UniProt P01116, G12V); test: HTRF assay, KRAS G12V interaction with SOS1; assay type: biochemical; details: bins <500 nM / 500 nM to 1000 nM, read-out: Inhibition of KRAS G12V (IC50)
T2 construct: made in house; host or cells: E. coli, e.g. BL21 (DE3)
T2 sequence (P01116 1-188 isoform P01116-2 G12V): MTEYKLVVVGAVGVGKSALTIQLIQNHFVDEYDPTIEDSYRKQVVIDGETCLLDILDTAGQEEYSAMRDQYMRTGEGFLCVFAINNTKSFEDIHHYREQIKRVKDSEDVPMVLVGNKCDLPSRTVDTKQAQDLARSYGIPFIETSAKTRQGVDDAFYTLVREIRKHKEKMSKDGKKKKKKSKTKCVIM

MiaPaca2 cells = test: Ras cellular assay, growth of cells with K-Ras G12C mutation; assay type: cell-based; details: Homo sapiens, MIA PaCa-2; cell proliferation assay; bins ≤500 nM / >500 nM; read-out: Inhibition of MiaPaca2 Cells (IC50)
In short: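 Anchorage-independent growth: G12C-mutant MIA PaCa-2 plated in soft agar, time-zero plate read the next day when compound was dosed (final DMSO 0.3%). After growth to day 10, MTS-type absorbance at 490/660 nm relative to time zero gave IC50 via four-parameter fitting.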

KRAS WT = biological target: T3, KRAS WT (Homo sapiens, UniProt P01116); test: HTRF assay, wildtype KRAS interaction with SOS1; assay type: biochemical; details: bins <500 nM / 500 nM to 1000 nM, read-out: Inhibition of KRAS WT (IC50)
T3 construct: made in house; host or cells: E. coli, e.g. BL21 (DE3)
T3 sequence (P01116 1-188 isoform P01116-2): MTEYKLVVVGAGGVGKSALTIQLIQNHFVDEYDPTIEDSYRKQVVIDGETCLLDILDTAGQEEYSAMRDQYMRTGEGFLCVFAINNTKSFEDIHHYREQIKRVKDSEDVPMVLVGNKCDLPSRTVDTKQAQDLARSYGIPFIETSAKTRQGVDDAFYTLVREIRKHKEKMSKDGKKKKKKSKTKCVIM

KRAS G12D = biological target: T4, KRAS G12D (Homo sapiens, UniProt P01116, G12D); test: HTRF assay, KRAS G12D interaction with SOS1; assay type: biochemical; details: bins <500 nM / 500 nM to 1000 nM, read-out: Inhibition of KRAS G12D (IC50)
T4 construct: made in house; host or cells: E. coli, e.g. BL21 (DE3)
T4 sequence (P01116 1-188 isoform P01116-2 G12D): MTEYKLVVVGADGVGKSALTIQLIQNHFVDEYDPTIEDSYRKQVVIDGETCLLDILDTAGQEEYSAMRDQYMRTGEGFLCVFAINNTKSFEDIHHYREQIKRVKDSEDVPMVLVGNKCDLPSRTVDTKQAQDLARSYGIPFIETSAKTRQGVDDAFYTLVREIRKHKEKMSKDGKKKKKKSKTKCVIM

T1 sequence (P01116 1-188 isoform P01116-2 G12S): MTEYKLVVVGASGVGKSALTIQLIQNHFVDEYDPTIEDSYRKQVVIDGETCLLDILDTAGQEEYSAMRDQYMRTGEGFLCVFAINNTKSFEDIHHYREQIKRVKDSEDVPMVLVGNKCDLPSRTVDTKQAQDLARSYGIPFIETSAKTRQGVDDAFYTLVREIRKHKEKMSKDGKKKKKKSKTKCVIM

IC50 (KRAS G12S) [nM] | IC50 (KRAS G12V) [nM] | IC50 (MiaPaca2 cells) [nM] | IC50 (KRAS WT) [nM] | IC50 (KRAS G12D) [nM] | SMILES
< 500 | < 500 | ≤ 500 | < 500 | < 500 | CN(c1nc(OC[C@@]23CCCN2C[C@H](F)C3)nc2c(F)c(-c3ccc(F)c4sc(N)c(C#N)c34)c(Cl)cc12)C1CN(C(=O)n2ccnc2)CC1F (mixture of isomers) [Compound 214, 2-amino-4-(6-chloro-8-fluoro-4-((4-fluoro-1-(1H-imidazole-1-carbonyl)pyrrolidin-3-yl)(methyl)amino)-2-(((2R,7aS)-2-fluorotetrahydro-1H-pyrrolizin-7a(5H)-yl)methoxy)quinazolin-7-yl)-7-fluorobenzo[b]thiophene-3-carbonitrile]
< 500 | < 500 | ≤ 500 | < 500 | < 500 | Cc1nc(C#N)cn1C(=O)N1CC[C@@H](N(C)c2nc(OC[C@@]34CCCN3C[C@H](F)C4)nc3c(F)c(-c4ccc(F)c5sc(N)c(C#N)c45)c(Cl)cc23)[C@H]1C [Compound 158, 1-((2R,3R)-3-((7-(2-amino-3-cyano-7-fluorobenzo[b]thiophen-4-yl)-6-chloro-8-fluoro-2-(((2R,7aS)-2-fluorotetrahydro-1H-pyrrolizin-7a(5H)-yl)methoxy)quinazolin-4-yl)(methyl)amino)-2-methylpyrrolidine-1-carbonyl)-2-methyl-1H-imidazole-4-carbonitrile]
< 500 | < 500 | ≤ 500 | < 500 | < 500 | C[C@@H]1[C@H](N(C)c2nc(OC[C@@]34CCCN3C[C@H](F)C4)nc3c(F)c(-c4ccc(F)c5sc(N)c(C#N)c45)c(Cl)cc23)CCN1C(=O)n1ccc(C#N)c1 [Compound 205, 1-((2R,3R)-3-((7-(2-amino-3-cyano-7-fluorobenzo[b]thiophen-4-yl)-6-chloro-8-fluoro-2-(((2R,7aS)-2-fluorotetrahydro-1H-pyrrolizin-7a(5H)-yl)methoxy)quinazolin-4-yl)(methyl)amino)-2-methylpyrrolidine-1-carbonyl)-1H-pyrrole-3-carbonitrile]
< 500 | < 500 | ≤ 500 | < 500 | < 500 | C[C@@H]1[C@H](N(C)c2nc(OC[C@@]34CCCN3C[C@H](F)C4)nc3c(F)c(-c4ccc(F)c5sc(N)c(C#N)c45)c(Cl)cc23)CCN1C(=O)n1cnc(Cl)c1 [Compound 211, 2-amino-4-(6-chloro-4-(((2R,3R)-1-(4-chloro-1H-imidazole-1-carbonyl)-2-methylpyrrolidin-3-yl)(methyl)amino)-8-fluoro-2-(((2R,7aS)-2-fluorotetrahydro-1H-pyrrolizin-7a(5H)-yl)methoxy)quinazolin-7-yl)-7-fluorobenzo[b]thiophene-3-carbonitrile]
< 500 | < 500 | ≤ 500 | < 500 | < 500 | Cc1cn(C(=O)N(C)C2CN(c3nc(OC[C@@]45CCCN4C[C@H](F)C5)nc4c(F)c(-c5ccc(F)c6sc(N)c(C#N)c56)c(Cl)cc34)CC2F)cn1 (stereo partly drawn) [Compound 151, N-(1-((R)-7-(2-amino-3-cyano-7-fluorobenzo[b]thiophen-4-yl)-6-chloro-8-fluoro-2-(((2R,7aS)-2-fluorotetrahydro-1H-pyrrolizin-7a(5H)-yl)methoxy)quinazolin-4-yl)-4-fluoropyrrolidin-3-yl)-N,4-dimethyl-1H-imidazole-1-carboxamide]
< 500 | < 500 | ≤ 500 | < 500 | < 500 | CCN(c1nc(OC[C@@]23CCCN2C[C@H](F)C3)nc2c(F)c(-c3ccc(F)c4sc(N)c(C#N)c34)c(Cl)cc12)[C@@H]1CCN(C(=O)n2cnc(C)c2)[C@@H]1C [Compound 108, 2-amino-4-(6-chloro-4-(ethyl((2R,3R)-2-methyl-1-(4-methyl-1H-imidazole-1-carbonyl)pyrrolidin-3-yl)amino)-8-fluoro-2-(((2R,7aS)-2-fluorotetrahydro-1H-pyrrolizin-7a(5H)-yl)methoxy)quinazolin-7-yl)-7-fluorobenzo[b]thiophene-3-carbonitrile]
< 500 | < 500 | ≤ 500 | < 500 | < 500 | CN(c1nc(OC[C@@]23CCCN2C[C@H](F)C3)nc2c(F)c(-c3ccc(F)c4sc(N)c(C#N)c34)c(Cl)cc12)[C@H]1CCN(C(=O)n2cncn2)C1 [Compound 179, 4-(4-(((S)-1-(1H-1,2,4-triazole-1-carbonyl)pyrrolidin-3-yl)(methyl)amino)-6-chloro-8-fluoro-2-(((2R,7aS)-2-fluorotetrahydro-1H-pyrrolizin-7a(5H)-yl)methoxy)quinazolin-7-yl)-2-amino-7-fluorobenzo[b]thiophene-3-carbonitrile]
< 500 | < 500 | ≤ 500 | < 500 | < 500 | Cc1cn(C(=O)N2CC3(CCCCN(c4nc(OC[C@@]56CCCN5C[C@H](F)C6)nc5c(F)c(-c6ccc(F)c7sc(N)c(C#N)c67)c(Cl)cc45)C3)C2)c(C)n1 [Compound 138, 2-amino-4-(6-chloro-4-(2-(2,4-dimethyl-1H-imidazole-1-carbonyl)-2,6-diazaspiro[3.6]decan-6-yl)-8-fluoro-2-(((2R,7aS)-2-fluorotetrahydro-1H-pyrrolizin-7a(5H)-yl)methoxy)quinazolin-7-yl)-7-fluorobenzo[b]thiophene-3-carbonitrile]
< 500 | < 500 | ≤ 500 | < 500 | < 500 | CCN(c1nc(OC[C@@]23CCCN2C[C@H](F)C3)nc2c(F)c(-c3ccc(F)c4sc(N)c(C#N)c34)c(Cl)cc12)[C@@H]1CCN(C(=O)n2cnc(C#N)c2C)[C@@H]1C [Compound 149, 1-((2R,3R)-3-((7-(2-amino-3-cyano-7-fluorobenzo[b]thiophen-4-yl)-6-chloro-8-fluoro-2-(((2R,7aS)-2-fluorotetrahydro-1H-pyrrolizin-7a(5H)-yl)methoxy)quinazolin-4-yl)(ethyl)amino)-2-methylpyrrolidine-1-carbonyl)-5-methyl-1H-imidazole-4-carbonitrile]
< 500 | < 500 | ≤ 500 | < 500 | < 500 | CCN(c1nc(OC[C@@]23CCCN2C[C@H](F)C3)nc2c(F)c(-c3ccc(F)c4sc(N)c(C#N)c34)c(Cl)cc12)[C@@H]1CCN(C(=O)n2cnc(OC)c2)[C@@H]1C [Compound 170, 2-amino-4-(6-chloro-4-(ethyl((2R,3R)-1-(4-methoxy-1H-imidazole-1-carbonyl)-2-methylpyrrolidin-3-yl)amino)-8-fluoro-2-(((2R,7aS)-2-fluorotetrahydro-1H-pyrrolizin-7a(5H)-yl)methoxy)quinazolin-7-yl)-7-fluorobenzo[b]thiophene-3-carbonitrile]
< 500 | < 500 | ≤ 500 | < 500 | < 500 | Cc1c(C#N)ncn1C(=O)N1C[C@]2(CC[C@H](C)N(c3nc(OC[C@@]45CCCN4C[C@H](F)C5)nc4c(F)c(-c5ccc(F)c6sc(N)c(C#N)c56)c(Cl)cc34)C2)[C@H]1C1(C)CC1 [Compound 202, 1-((1R,4R,7S)-6-(7-(2-amino-3-cyano-7-fluorobenzo[b]thiophen-4-yl)-6-chloro-8-fluoro-2-(((2R,7aS)-2-fluorotetrahydro-1H-pyrrolizin-7a(5H)-yl)methoxy)quinazolin-4-yl)-7-methyl-1-(1-methylcyclopropyl)-2,6-diazaspiro[3.5]nonane-2-carbonyl)-5-methyl-1H-imidazole-4-carbonitrile]
< 500 | < 500 | ≤ 500 | < 500 | < 500 | CCN(c1nc(OC[C@@]23CCCN2C[C@H](F)C3)nc2c(F)c(-c3ccc(F)c4sc(N)c(C#N)c34)c(C3CC3)cc12)[C@@H]1CCN(C(=O)n2cnc(C)c2C)[C@@H]1C [Compound 175, 2-amino-4-(6-cyclopropyl-4-(((2R,3R)-1-(4,5-dimethyl-1H-imidazole-1-carbonyl)-2-methylpyrrolidin-3-yl)(ethyl)amino)-8-fluoro-2-(((2R,7aS)-2-fluorotetrahydro-1H-pyrrolizin-7a(5H)-yl)methoxy)quinazolin-7-yl)-7-fluorobenzo[b]thiophene-3-carbonitrile]
< 500 | < 500 | ≤ 500 | < 500 | < 500 | CCN(c1nc(OC[C@@]23CCCN2C[C@H](F)C3)nc2c(F)c(-c3ccc(F)c4sc(N)c(C#N)c34)c(C(F)(F)F)cc12)[C@@H]1CCN(C(=O)n2cnc(C)c2C)[C@@H]1C [Compound 110, 2-amino-4-(4-(((2R,3R)-1-(4,5-dimethyl-1H-imidazole-1-carbonyl)-2-methylpyrrolidin-3-yl)(ethyl)amino)-8-fluoro-2-(((2R,7aS)-2-fluorotetrahydro-1H-pyrrolizin-7a(5H)-yl)methoxy)-6-(trifluoromethyl)quinazolin-7-yl)-7-fluorobenzo[b]thiophene-3-carbonitrile]
